From patent publication US4510136A (priority 1983, dated 1985) come the findings set out here.

What all share (format): in vivo
One assay has as its system Erysiphe cichoracearum. Put plainly: Cucumber powdery mildew control on sprayed cucumber seedlings (Example 80). The settings on record: Golovinomyces cichoracearum, 168 h, 100 ppm spray, day before inoculation. The protocol:
These suspensions were sprayed to the point of run-off, on cucumber seedlings. The following day, the plants were inoculated with a spore suspension of the fungus Erysiphe cichoracearum, causal agent of cucumber powdery mildew, and incubated in a growth room for 7 days. Disease ratings were then made. Treated plants from successful treatments had little or no powdery mildew in contrast to untreated plants which were covered with powdery mildew. Phytotoxicity in the form of growth reduction or hormonal effects was observed on some of the plants in association with disease control.

The next assay has as its system Rhizoctonia solani. Put plainly: Rice sheath blight control on sprayed rice seedlings (Example 87). The settings on record: Rhizoctonia solani, 168 h, 100 ppm spray, day before inoculation. The protocol:
The compounds of the previous examples were again dissolved in acetone in an amount equal to 6% of the final volume and then suspended at a concentration of 100 ppm in purified water containing 250 ppm of the surfactant TREM 014 (polyhydric alcohol esters). This suspension was sprayed to the point of run-off on rice seedlings. The following day, the plants were inoculated with a mixture of bran and the mycelium of Rhizoctonia solani, causal agent of sheath blight of rice, and incubated in a growth room for 7 days. Disease ratings were then made. Treated plants from successful treatments had little sheath blight in contrast to untreated plants which were covered with sheath blight.

The next assay has as its system Helminthosporium maydis. Put plainly: Southern corn leaf blight control on sprayed corn seedlings (Example 83). The settings on record: Bipolaris maydis, 192 h, 100 ppm spray, day before inoculation. The protocol:
The compounds of the previous examples were again dissolved in acetone in an amount equal to 6% of the final volume and then suspended at a concentration of 100 ppm in purified water containing 250 ppm of the surfactant TREM 014 (polyhydric alcohol esters). These suspensions were sprayed to the point of run-off on corn seedlings. The following day, the plants were inoculated with a spore suspension of Helminthosporium maydis, causal agent of southern corn leaf blight, and incubated in a saturated humidity chamber at 20° for 24 hours and then in a growth room for an additional 7 days, when disease ratings were made. Treated plants from successful treatments had few or no lesions while the untreated plants had numerous lesions on each leaf. Phytotoxicity expressed as growth reduction was observed on some of the plants in association with disease control.

Another assay has as its system Phytophthora infestans. Put plainly: whole plant or invertebrate. Conditions: Phytophthora infestans, in Solanum lycopersicum, 168 h, read-out: % Control of Tomato Late Blight, 100 ppm spray, day before inoculation.
Assay [1] has as its system Puccinia recondita var. tritici. Put plainly: Wheat leaf rust control on sprayed wheat seedlings (Example 79). Conditions: Puccinia recondita, 168 h; for pest or weed control at 100 ppm: 100 ppm spray, day before inoculation. As for the experimental part:
The compounds of this invention were dissolved in acetone in an amount equal to 6% of the final volume and then suspended at a concentration of 100 ppm in purified water containing 250 ppm of the surfactant TREM 014 (polyhydric alcohol esters). These suspensions were sprayed to the point of run-off on wheat seedlings. The following day, the plants were inoculated with a spore suspension of Puccinia recondita var. tritici, causal agent of wheat leaf rust, and incubated in a saturated humidity chamber at 20° for 24 hours and then in a growth room for an additional 7 days, when disease ratings were made. Treated plants from successful treatments had few or no rust pustules while the untreated plants had numerous rust pustules on each leaf.

The next assay relates to Venturia inaequalis. Put plainly: Apple scab control on sprayed apple seedlings (Example 82). Conditions: Venturia inaequalis, 100 ppm spray, day before inoculation. The protocol: These suspensions were sprayed to the point of run-off on apple seedlings. The following day, the plants were inoculated with a spore suspension of the fungus Venturia inaequalis, causal agent of apple scab, and incubated in a saturated humidity chamber at 20° for 24 hours and then in a growth room for an additional 10-12 days. Treated plants from successful treatments had fewer apple scab lesions when compared to untreated plants which were covered with scab lesions. Phytotoxicity expressed as growth reduction was observed on some of the plants in association with disease control.

The subject of the next assay is Cercospora arachidicola. Put plainly: Peanut early leafspot control on sprayed peanut seedlings (Example 84). Conditions: Mycosphaerella arachidis, 360 h, read-out: % Control Peanut Easly Leafspot; for pest or weed control at 100 ppm: 100 ppm spray, day before inoculation. The protocol: These suspensions were sprayed to the point of run-off on peanut seedlings. The following day, the plants were inoculated with a spore suspension of Cercospora arachidicola, causal agent of peanut early leafspot, and incubated in a saturated humidity chamber at 27° for 24 hours and then in a growth room for an additional 14 days, when disease ratings were made. Treated plants from successful treatments had few or no leafspots while the untreated plants had numerous leafspots.

The next assay has as its system Pyricularia oryzae. Put plainly: whole plant or invertebrate. Conditions: Pyricularia oryzae, 168 h, read-out: % Control of Rice Blast, 100 ppm spray, day before inoculation.

As to `C[Si](C)(Cn1cncn1)c1cccc(Cl)c1` [(3-Chlorophenyl)dimethyl(1H-1,2,4-triazol-1-ylmethyl)silane], the pest or weed control at 100 ppm worked out at 0% with Erysiphe cichoracearum; 0% with Rhizoctonia solani; 0% with Helminthosporium maydis; 0% in the assay with Phytophthora infestans; 0% in assay [1]; 60% in the assay with Venturia inaequalis. In addition, the pest or weed control at 100 ppm in the assay with Cercospora arachidicola and with Pyricularia oryzae was 0% in each case.

For `C[Si](C)(Cn1cncn1)c1ccc(-c2ccc(Br)cc2)cc1` [(4'-Bromo-1,1'-biphenyl-4-yl)dimethyl(1H-1,2,4-triazol-1-ylmethyl)silane], the pest or weed control at 100 ppm in the assay with Erysiphe cichoracearum turned out to be 100%; in the assay on Rhizoctonia solani, 90%; in the assay with Helminthosporium maydis it was 70%; in the assay with Phytophthora infestans, 30%; in assay [1], 100%; with Venturia inaequalis it was 100%. The pest or weed control at 100 ppm in the assay with Cercospora arachidicola worked out at 100%; in the assay on Pyricularia oryzae, 90%.

As to `CCCC[Si](C)(Cn1cncn1)c1ccccc1` (centres unmarked) [Butyl(methyl)phenyl(1H-1,2,4-triazol-1-ylmethyl)silane], the pest or weed control at 100 ppm in the assay with Erysiphe cichoracearum turned out to be 100%; with Rhizoctonia solani it was 90%; with Helminthosporium maydis it was 0%; with Phytophthora infestans it was 0%; in assay [1] it was 0%; in the assay with Venturia inaequalis, 80%. Moreover, the pest or weed control at 100 ppm with Cercospora arachidicola came to 0%; in the assay on Pyricularia oryzae, 90%.

On to `C[Si](C)(Cn1cncn1)c1cccc(C(F)(F)F)c1` [Dimethyl(1H-1,2,4-triazol-1-ylmethyl)(3-trifluoromethylphenyl)silane], for which the pest or weed control at 100 ppm turned out to be 100% in the assay with Erysiphe cichoracearum; 0% in the assay on Rhizoctonia solani; 0% in the assay on Helminthosporium maydis; 0% in the assay on Phytophthora infestans; 0% in assay [1]; 0% with Venturia inaequalis. Also, the pest or weed control at 100 ppm with Cercospora arachidicola and with Pyricularia oryzae was 0% throughout.

As for `C[Si](C)(Cn1cncn1)c1ccc(S(C)(=O)=O)cc1` [Dimethyl(4-methylsulfonylphenyl)(1H-1,2,4-triazol-1-ylmethyl)silane], the pest or weed control at 100 ppm (in the assay on Erysiphe cichoracearum; with Rhizoctonia solani; in the assay with Helminthosporium maydis; in the assay with Phytophthora infestans; in assay [1]; in the assay with Venturia inaequalis) was 0% in each case. Further, the figures for the pest or weed control at 100 ppm with Cercospora arachidicola and in the assay on Pyricularia oryzae were 0% and 70%, respectively.

For the compound `CSc1ccc([Si](C)(C)Cn2cncn2)cc1` [Dimethyl(4-methylthiophenyl)(1H-1,2,4-triazol-1-ylmethyl)silane], the pest or weed control at 100 ppm with Erysiphe cichoracearum was found to be 100%; in the assay on Rhizoctonia solani, 0%; in the assay on Helminthosporium maydis, 80%; in the assay on Phytophthora infestans it was 0%; in assay [1], 0%; in the assay on Venturia inaequalis, 60%. Also, the pest or weed control at 100 ppm in the assay on Cercospora arachidicola and in the assay on Pyricularia oryzae was 0% in each case.

In the case of `CCCCCCCCCCCCCCCCCC[Si](C)(C)Cn1cncn1` [Dimethyl(octadecyl)(1H-1,2,4-triazol-1-ylmethyl)silane], the pest or weed control at 100 ppm with Erysiphe cichoracearum was 0%; in the assay on Rhizoctonia solani it was 0%; in the assay on Helminthosporium maydis, 0%; in the assay with Phytophthora infestans, 0%; in assay [1] it was 0%; with Venturia inaequalis, 60%. Moreover, the pest or weed control at 100 ppm in the assay with Cercospora arachidicola and in the assay on Pyricularia oryzae was 0% throughout.

For `CC(C)O[Si](C)(Cn1cncn1)c1ccccc1` (centres unmarked) [Methyl(phenyl)(2-propoxy)(1H-1,2,4-triazol-1-ylmethyl)silane], the pest or weed control at 100 ppm in the assay on Erysiphe cichoracearum was 100%; with Rhizoctonia solani it was 0%; with Helminthosporium maydis it was 0%; in the assay with Phytophthora infestans, 0%; in assay [1] it was 0%; in the assay on Venturia inaequalis, 0%. Moreover, the pest or weed control at 100 ppm with Cercospora arachidicola and in the assay on Pyricularia oryzae was 0% in each case.

As for `Cc1ccc([Si](C)(Cn2cncn2)c2ccc(C)cc2)cc1` [Methyl[bis(4-methylphenyl)](1H-1,2,4-triazol-1-ylmethyl)silane], the pest or weed control at 100 ppm was found to be 0% in the assay with Erysiphe cichoracearum; 30% in the assay on Rhizoctonia solani; 0% in the assay with Helminthosporium maydis; 0% with Phytophthora infestans; 0% in assay [1]; 0% in the assay on Venturia inaequalis. For the same compound, the values for the pest or weed control at 100 ppm in the assay with Cercospora arachidicola and in the assay on Pyricularia oryzae were 0% and 80%, respectively.

Turning to `Fc1ccc([Si](Cn2cncn2)(O[Si](Cn2cncn2)(c2ccc(F)cc2)c2ccc(F)cc2)c2ccc(F)cc2)cc1` [Oxybis[bis(4-fluorophenyl)(1H-1,2,4-triazol-1-ylmethyl)silane]], the pest or weed control at 100 ppm in the assay with Erysiphe cichoracearum was determined as 100%; in the assay on Rhizoctonia solani, 0%; with Helminthosporium maydis it was 97%; in the assay on Phytophthora infestans, 0%; in assay [1], 100%; in the assay with Venturia inaequalis it was 100%. Besides, the pest or weed control at 100 ppm in the assay on Pyricularia oryzae was 50%. In addition, the pest or weed control at 20 ppm in the assay on Cercospora arachidicola (applied at 20 ppm) was determined as 93%.

Take `CC(C)(C)c1ccc([Si](C)(C)Cn2cncn2)cc1` [[4-(1,1-Dimethylethyl)phenyl]dimethyl(1H-1,2,4-triazol-1-ylmethyl)silane]: the pest or weed control at 100 ppm in the assay with Erysiphe cichoracearum was determined as 0%; in the assay with Rhizoctonia solani, 90%; with Helminthosporium maydis, 60%; in the assay with Phytophthora infestans it was 0%; in the assay with Venturia inaequalis, 0%; with Cercospora arachidicola, 35%. Moreover, the pest or weed control at 100 ppm in the assay on Pyricularia oryzae turned out to be 90%. This compound also showed a pest or weed control at 200 ppm in assay [1] (applied at 200 ppm) of 80%.

On to `C[Si](Cn1cncn1)(c1ccccc1Cl)c1ccccc1Cl` [[bis(2-Chlorophenyl)]methyl(1H-1,2,4-triazol-1-ylmethyl)silane], for which the pest or weed control at 100 ppm with Erysiphe cichoracearum was determined as 100%; in the assay with Rhizoctonia solani, 60%; in the assay with Helminthosporium maydis, 60%; in the assay on Phytophthora infestans, 0%; in assay [1], 100%; with Venturia inaequalis, 40%. Also, the figures for the pest or weed control at 100 ppm in the assay on Cercospora arachidicola and in the assay on Pyricularia oryzae were 100% and 90%, respectively.

On to `COc1ccc([Si](C)(Cn2cncn2)c2ccc(OC)cc2)cc1` [[bis(4-Methoxyphenyl)]methyl(1H-1,2,4-triazol-1-ylmethyl)silane], for which the pest or weed control at 100 ppm in the assay on Erysiphe cichoracearum was determined as 0%; in the assay on Rhizoctonia solani, 80%; in the assay on Helminthosporium maydis it was 90%; with Phytophthora infestans, 0%; in assay [1], 0%; with Venturia inaequalis it was 0%. Also, the pest or weed control at 100 ppm with Cercospora arachidicola is 30%; in the assay with Pyricularia oryzae, 0%.
